# Measurements reported in publication PMC6718736, “Validation of in vitro methods for human cytochrome P450 enzyme induction: Outcome of a multi-laboratory study” (Toxicology in Vitro, 2019).
# “Also recorded” adds a separate entry of the source. Where two headings read alike, the source gives them in different places.
# Legend:
# [1] = system: CYP3A4; conditions: CYP3A4, human in vivo reference classification (Table 11); cited from earlier work
# [2] = cited from earlier work
# [3] = system: CYP2B6; test: CYP2B6 enzyme induction assay in cryopreserved primary human hepatocytes (PHH); format: in vitro ADME; conditions: for Assigned classification CYP2B6: PHH;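 on Assigned classification CYP2B6: code 1 means positive inducer and 0 means non-inducer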
# [4] = system: CYP2B6; test: CYP2B6 enzyme induction assay in cryopreserved HepaRG cells (bupropion probe, LC/MS); format: in vitro ADME, human; conditions: for Assigned classification CYP2B6: HepaRG; for Prediction in vivo inducer: Cmax/F2 >0.5 criterion; on Assigned classification CYP2B6: key: 1=Positive=inducer; 0=Negative=non-inducer
# [5] = system: CYP1A2; test: CYP1A2 enzyme induction assay in cryopreserved HepaRG cells (phenacetin probe, LC/MS); format: in vitro ADME, human; conditions: for Prediction in vivo inducer: Cmax/F2 >0.5 criterion; for Induction in vitro: positive in one batch in each of the three laboratories; for Assigned classification CYP1A2: HepaRG; on Assigned classification CYP1A2: key: 1=Positive=inducer; 0=Negative=non-inducer
# [6] = system: CYP1A2; conditions: cited from earlier work; for Induction in vivo: CYP1A2, human, ref Table 1
# [7] = system: CYP1A2; test: CYP1A2 enzyme induction assay in cryopreserved primary human hepatocytes (PHH); format: in vitro ADME; conditions: for Prediction in vivo inducer / Induction in vitro: CYP1A2, PHH; for Prediction in vivo inducer: Cmax/F2 >0.5 criterion; for Induction in vitro: positive in one donor in each of the three laboratories; for Assigned classification CYP1A2: PHH;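 on Assigned classification CYP1A2: code 1 means positive inducer and 0 means non-inducer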
# [8] = system: CYP3A4; test: CYP3A4 enzyme induction assay in cryopreserved primary human hepatocytes (PHH); conditions: for Assigned classification CYP3A4: PHH
# [9] = system: CYP3A4; test: CYP3A4 enzyme induction assay in cryopreserved HepaRG cells (midazolam probe, LC/MS); format: in vitro ADME, human; conditions: for Assigned classification CYP3A4: HepaRG; on Assigned classification CYP3A4: key: 1=Positive=inducer; 0=Negative=non-inducer
# [10] = system: CYP2B6; conditions: cited from earlier work
# [11] = human in vivo plasma concentration, normal dose
# [12] = human in vivo, normal dose (Table 10)
# [13] = human in vivo, CYP named without remark = induced, ref references in the cell, Washington University database, Hoffmann et al. (2014), Pelkonen et al. (2008), Hukkanen et al. (2012)
compound,measurement,setting,value
COCCc1ccc(OCC(O)CNC(C)C)cc1 (stereo not shown) [Metoprolol],Induction in vivo,[1],No
same,Cmax,[2]; [11],0.14 to 0.38 µM
same,Cmax,[2]; [12],0.14 to 0.38 µM
same,Assigned classification CYP2B6,"[3]; Lab 1, batch 0 6 A",0
same,Assigned classification CYP2B6,"[3]; Lab 1, batch 4 0 8",0
same,Assigned classification CYP2B6,"[3]; Lab 1, batch 8 0 8",0
same,Assigned classification CYP2B6,"[3]; Lab 2, batch 0 6 A",0
same,Assigned classification CYP2B6,"[3]; Lab 2, batch 4 0 8",0
same,Assigned classification CYP2B6,"[3]; Lab 2, batch 8 0 8",0
same,Assigned classification CYP2B6,"[3]; Lab 3, batch 0 6 A",1
same,Assigned classification CYP2B6,"[3]; Lab 3, batch 4 0 8",0
same,Assigned classification CYP2B6,"[3]; Lab 3, batch 8 0 8",0
same,Assigned classification CYP2B6,"[4]; Lab 1, batch 20",0
same,Assigned classification CYP2B6,"[4]; Lab 1, batch 35",0
same,Assigned classification CYP2B6,"[4]; Lab 1, batch 36",0
same,Assigned classification CYP2B6,"[4]; Lab 2, batch 20",0
same,Assigned classification CYP2B6,"[4]; Lab 2, batch 35",0
same,Assigned classification CYP2B6,"[4]; Lab 2, batch 36",0
same,Assigned classification CYP2B6,"[4]; Lab 3, batch 20",0
same,Assigned classification CYP2B6,"[4]; Lab 3, batch 35",0
same,Assigned classification CYP2B6,"[4]; Lab 3, batch 36",0
same,Prediction in vivo inducer,"[5]; CYP1A2, HepaRG cells",No
same,Induction in vitro,"[5]; CYP1A2, HepaRG cells",No
same,Assigned classification CYP1A2,"[5]; Lab 1, batch 20",0
same,Assigned classification CYP1A2,"[5]; Lab 1, batch 35",0
same,Assigned classification CYP1A2,"[5]; Lab 1, batch 36",0
same,Assigned classification CYP1A2,"[5]; Lab 2, batch 20",0
same,Assigned classification CYP1A2,"[5]; Lab 2, batch 35",1
same,Assigned classification CYP1A2,"[5]; Lab 2, batch 36",0
same,Assigned classification CYP1A2,"[5]; Lab 3, batch 20",0
same,Assigned classification CYP1A2,"[5]; Lab 3, batch 35",0
same,Assigned classification CYP1A2,"[5]; Lab 3, batch 36",0
same,Induction in vivo,[6],No
same,Prediction in vivo inducer,[7],No
same,Induction in vitro,[7],No
same,Assigned classification CYP1A2,"[7]; Lab 1, batch 0 6 A",0
same,Assigned classification CYP1A2,"[7]; Lab 1, batch 4 0 8",1
same,Assigned classification CYP1A2,"[7]; Lab 1, batch 8 0 8",1
same,Assigned classification CYP1A2,"[7]; Lab 2, batch 0 6 A",0
same,Assigned classification CYP1A2,"[7]; Lab 2, batch 4 0 8",0
same,Assigned classification CYP1A2,"[7]; Lab 2, batch 8 0 8",0
same,Assigned classification CYP1A2,"[7]; Lab 3, batch 0 6 A",1
same,Assigned classification CYP1A2,"[7]; Lab 3, batch 4 0 8",0
same,Assigned classification CYP1A2,"[7]; Lab 3, batch 8 0 8",0
same,Induction in vitro,"[8]; CYP3A4, PHH",No
same,Prediction in vivo inducer,"[8]; CYP3A4, PHH",No
same,Prediction in vivo inducer,"[8]; CYP3A4, PHH, Cmax/F2 >0.5 criterion",predicted to be a non-inducer in vivo
same,Assigned classification CYP3A4,"[8]; Lab 1, batch 0 6 A",0
same,Assigned classification CYP3A4,"[8]; Lab 1, batch 4 0 8",0
same,Assigned classification CYP3A4,"[8]; Lab 1, batch 8 0 8",0
same,Assigned classification CYP3A4,"[8]; Lab 2, batch 0 6 A",1
same,Assigned classification CYP3A4,"[8]; Lab 2, batch 4 0 8",0
same,Assigned classification CYP3A4,"[8]; Lab 2, batch 8 0 8",0
same,Assigned classification CYP3A4,"[8]; Lab 3, batch 0 6 A",1
same,Assigned classification CYP3A4,"[8]; Lab 3, batch 4 0 8",0
same,Assigned classification CYP3A4,"[8]; Lab 3, batch 8 0 8",0
same,Induction in vitro,"[9]; CYP3A4, HepaRG cells",No
same,Prediction in vivo inducer,"[9]; CYP3A4, HepaRG cells",No
same,Assigned classification CYP3A4,"[9]; Lab 1, batch 20",0
same,Assigned classification CYP3A4,"[9]; Lab 1, batch 35",0
same,Assigned classification CYP3A4,"[9]; Lab 1, batch 36",0
same,Assigned classification CYP3A4,"[9]; Lab 2, batch 20",0
same,Assigned classification CYP3A4,"[9]; Lab 2, batch 35",0
same,Assigned classification CYP3A4,"[9]; Lab 2, batch 36",0
same,Assigned classification CYP3A4,"[9]; Lab 3, batch 20",0
same,Assigned classification CYP3A4,"[9]; Lab 3, batch 35",0
same,Assigned classification CYP3A4,"[9]; Lab 3, batch 36",0
CO[C@H]1/C=C/O[C@@]2(C)Oc3c(C)c(O)c4c(O)c(c(/C=N/N5CCN(C)CC5)c(O)c4c3C2=O)NC(=O)/C(C)=C\C=C\[C@H](C)[C@H](O)[C@@H](C)[C@@H](O)[C@@H](C)[C@H](OC(C)=O)[C@@H]1C [Rifampicin],Cmax,[2]; [11],8 to 12 µM
same,Cmax,[2]; [12],8 to 12 µM
same,F2,"[3]; CYP2B6, PHH",0.2 µM
same,Induction in vitro,"[3]; CYP2B6, PHH",Yes
same,Prediction in vivo inducer,"[3]; CYP2B6, PHH",Yes
same,Prediction in vivo inducer,"[3]; CYP2B6, PHH, Cmax/F2 >0.5 criterion",positive
same,Assigned classification CYP2B6,"[3]; Lab 1, batch 0 6 A",1
same,Assigned classification CYP2B6,"[3]; Lab 1, batch 4 0 8",1
same,Assigned classification CYP2B6,"[3]; Lab 1, batch 8 0 8",1
same,Assigned classification CYP2B6,"[3]; Lab 2, batch 0 6 A",1
same,Assigned classification CYP2B6,"[3]; Lab 2, batch 4 0 8",0
same,Assigned classification CYP2B6,"[3]; Lab 2, batch 8 0 8",1
same,Assigned classification CYP2B6,"[3]; Lab 3, batch 0 6 A",1
same,Assigned classification CYP2B6,"[3]; Lab 3, batch 4 0 8",1
same,Assigned classification CYP2B6,"[3]; Lab 3, batch 8 0 8",1
same,Prediction in vivo inducer,"[4]; CYP2B6, HepaRG cells",Yes
same,Prediction in vivo inducer,"[4]; CYP2B6, HepaRG cells, listed as rifampicin",correctly classified
same,F2,"[4]; CYP2B6, HepaRG cells, in vitro concentration producing 2-fold induction",0.6 to 1.80 µM
same,Induction in vitro,"[4]; CYP2B6, HepaRG cells, positive in one batch in each of the three laboratories",Yes
same,Assigned classification CYP2B6,"[4]; Lab 1, batch 20",0
same,Assigned classification CYP2B6,"[4]; Lab 1, batch 35",1
same,Assigned classification CYP2B6,"[4]; Lab 1, batch 36",0
same,Assigned classification CYP2B6,"[4]; Lab 2, batch 20",1
same,Assigned classification CYP2B6,"[4]; Lab 2, batch 35",0
same,Assigned classification CYP2B6,"[4]; Lab 2, batch 36",1
same,Assigned classification CYP2B6,"[4]; Lab 3, batch 20",0
same,Assigned classification CYP2B6,"[4]; Lab 3, batch 35",0
same,Assigned classification CYP2B6,"[4]; Lab 3, batch 36",1
same,Prediction in vivo inducer,"[5]; CYP1A2, HepaRG cells",Yes
same,F2,"[5]; CYP1A2, HepaRG cells, in vitro concentration producing 2-fold induction",0.20 to 0.60 µM
same,Induction in vitro,"[5]; CYP1A2, HepaRG cells",Yes
same,Assigned classification CYP1A2,"[5]; Lab 1, batch 20",1
same,Assigned classification CYP1A2,"[5]; Lab 1, batch 35",1
same,Assigned classification CYP1A2,"[5]; Lab 1, batch 36",1
same,Assigned classification CYP1A2,"[5]; Lab 2, batch 20",1
same,Assigned classification CYP1A2,"[5]; Lab 2, batch 35",1
same,Assigned classification CYP1A2,"[5]; Lab 2, batch 36",1
same,Assigned classification CYP1A2,"[5]; Lab 3, batch 20",1
same,Assigned classification CYP1A2,"[5]; Lab 3, batch 35",1
same,Assigned classification CYP1A2,"[5]; Lab 3, batch 36",1
same,Induction in vivo,[6],Yes
same,CYP induction in vivo literature reference: CYP1A2,[6]; [13],CYP1A2
same,Prediction in vivo inducer,[7],No
same,Prediction in vivo inducer,[7]; listed as rifampicin,non-inducer; also recorded: missed the in vivo prediction
same,Induction in vitro,[7],No
same,Assigned classification CYP1A2,"[7]; Lab 1, batch 0 6 A",0
same,Assigned classification CYP1A2,"[7]; Lab 1, batch 4 0 8",0
same,Assigned classification CYP1A2,"[7]; Lab 1, batch 8 0 8",0
same,Assigned classification CYP1A2,"[7]; Lab 2, batch 0 6 A",0
same,Assigned classification CYP1A2,"[7]; Lab 2, batch 4 0 8",0
same,Assigned classification CYP1A2,"[7]; Lab 2, batch 8 0 8",1
same,Assigned classification CYP1A2,"[7]; Lab 3, batch 0 6 A",1
same,Assigned classification CYP1A2,"[7]; Lab 3, batch 4 0 8",0
same,Assigned classification CYP1A2,"[7]; Lab 3, batch 8 0 8",0
same,Induction in vivo,"[10]; CYP2B6, human in vivo reference classification",Yes
same,Induction in vivo,"[10]; CYP2B6, human, ref Table 1",Yes
same,CYP induction in vivo literature reference: CYP2B6,[10]; [13],CYP2B6
